Reference: ChEMBL document CHEMBL5532662, “Exploiting the Carboxylate-Binding Pocket of β-Lactamase Enzymes Using a Focused DNA-Encoded Chemical Library” (J Med Chem, 2024)

How the values were obtained:
Escherichia coli [1] = assay: Synergistic antimicrobial activity against Escherichia coli expressing […] assessed as imipenem MIC at 16 ug/ml incubated for 18 hrs by microdilution method (reference value: 8 ug/ml); type: functional; settings: dose 16 µg/ml
Escherichia coli [2] = assay: Synergistic antimicrobial activity against Escherichia coli expressing […] assessed as imipenem MIC at 32 ug/ml incubated for 18 hrs by microdilution method (reference value: 8 ug/ml); type: functional; settings: dose 32 µg/ml
Escherichia coli [3] = assay: Synergistic antimicrobial activity against Escherichia coli expressing […] assessed as imipenem MIC at 128 ug/ml incubated for 18 hrs by microdilution method (reference value: 8 ug/ml); type: functional; settings: dose 128 µg/ml
Escherichia coli [4] = assay: Synergistic antimicrobial activity against Escherichia coli expressing […] assessed as imipenem MIC at 64 ug/ml incubated for 18 hrs by microdilution method (reference value: 8 ug/ml); type: functional; settings: dose 64 µg/ml
[5] = molecular target: T1, Metallo-beta-lactamase type 2 (Bacteria, UniProt C7C422); assay: biochemical
T1 sequence (C7C422 whole entry): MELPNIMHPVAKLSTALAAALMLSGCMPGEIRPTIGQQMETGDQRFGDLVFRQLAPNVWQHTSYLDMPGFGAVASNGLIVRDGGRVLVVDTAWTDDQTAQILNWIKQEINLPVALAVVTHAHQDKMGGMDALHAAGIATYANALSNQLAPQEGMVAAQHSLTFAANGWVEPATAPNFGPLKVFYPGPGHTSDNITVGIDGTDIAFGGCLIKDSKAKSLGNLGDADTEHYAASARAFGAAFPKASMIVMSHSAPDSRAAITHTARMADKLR

[6] = Binding affinity to his-tagged OXA-48 (unknown origin) expressed in Escherichia coli BL21 (DE3) cells assessed as inhibition constant using nitrocefin as substrate by Morrison equation based analysis; design: species or system Bacteria
[7] = Drug accumulation in Escherichia coli assessed per 10^12 CFU incubated for 10 mins under shaking condition by LC-MS/MS analysis; type: ADME
[8] = molecular target: T1, Metallo-beta-lactamase type 2; assay: biochemical; remark: listed apart in the source
Escherichia coli [9] = assay: Synergistic antimicrobial activity against Escherichia coli expressing […] assessed as imipenem MIC at 8 ug/ml incubated for 18 hrs by microdilution method (reference value: 8 ug/ml); type: functional; settings: dose 8 µg/ml

NCc1cccc(NCc2ccnc(-c3ccc(C(=O)O)c(O)c3)c2)c1
MIC (Escherichia coli [1]): 8 µg/mL
MIC (Escherichia coli [2]): 8 µg/mL
MIC (Escherichia coli [3]): 4 µg/mL
MIC (Escherichia coli [4]): 4 µg/mL

NCc1cccc(NCc2cc(O)cc(-c3ccc(C(=O)O)c(O)c3)c2)c1
MIC (Escherichia coli [1]): 4 µg/mL
MIC (Escherichia coli [2]): 4 µg/mL
MIC (Escherichia coli [3]): 4 µg/mL
MIC (Escherichia coli [4]): 4 µg/mL

NCc1cccc(NCc2ccc(-c3ccc(C(=O)O)c(O)c3)s2)c1
MIC (Escherichia coli [1]): 4 µg/mL
MIC (Escherichia coli [2]): 4 µg/mL
MIC (Escherichia coli [3]): 4 µg/mL
MIC (Escherichia coli [4]): 4 µg/mL
Ki [5]: 1.5 µM

NCc1cccc(NCc2ccc(-c3cccc(C(=O)O)c3O)o2)c1
MIC (Escherichia coli [1]): 8 µg/mL
MIC (Escherichia coli [2]): 4 µg/mL
MIC (Escherichia coli [3]): 4 µg/mL
MIC (Escherichia coli [4]): 4 µg/mL

CN(C)C(=O)C1CCN(c2ccc(CNCc3ccccc3-c3cccc(C(=O)O)c3)cc2C#N)CC1
Ki [6]: 8 µM

NCc1cccc(NCc2ccc(-c3ccc(C(=O)O)c(O)c3)o2)c1
MIC (Escherichia coli [1]): 4 µg/mL
MIC (Escherichia coli [2]): 4 µg/mL
MIC (Escherichia coli [3]): 4 µg/mL
MIC (Escherichia coli [4]): 4 µg/mL

NCc1cccc(NC(=O)c2cccc(-c3ccc(C(=O)O)c(O)c3)c2)c1
MIC (Escherichia coli [1]): 8 µg/mL
MIC (Escherichia coli [2]): 8 µg/mL
MIC (Escherichia coli [3]): 8 µg/mL
MIC (Escherichia coli [4]): 8 µg/mL
Ki [5]: 30 µM

Cc1cccc(NCc2cccc(-c3ccc(C(=O)O)c(O)c3)c2)c1
Ki [5]: > 100 µM

NCc1cccc(N2Cc3ccc(-c4ccc(C(=O)O)c(O)c4)cc3C2)c1
MIC (Escherichia coli [1]): 8 µg/mL
MIC (Escherichia coli [2]): 8 µg/mL
MIC (Escherichia coli [3]): 8 µg/mL
MIC (Escherichia coli [4]): 8 µg/mL
Ki [5]: 50 µM

Nc1cccc(CCCNCc2ccccc2-c2cccc(C(=O)O)c2)c1
Ki [6]: 130 µM

CNCc1cccc(NCc2ccc(-c3ccc(C(=O)O)cc3)o2)c1
Ki [5]: 9 µM

NCc1cccc(NCc2cncc(-c3ccc(C(=O)O)c(O)c3)c2)c1
MIC (Escherichia coli [1]): 8 µg/mL
MIC (Escherichia coli [2]): 8 µg/mL
MIC (Escherichia coli [3]): 4 µg/mL
MIC (Escherichia coli [4]): 8 µg/mL

CNCc1cccc(NCc2cccc(-c3ccc(C(=O)O)c(O)c3)c2)c1
MIC (Escherichia coli [1]): 4 µg/mL
MIC (Escherichia coli [2]): 4 µg/mL
MIC (Escherichia coli [3]): 4 µg/mL
MIC (Escherichia coli [4]): 4 µg/mL

NCc1cccc(NCc2cc(-c3ccc(C(=O)O)c(O)c3)ccn2)c1
MIC (Escherichia coli [1]): 8 µg/mL
MIC (Escherichia coli [2]): 8 µg/mL
MIC (Escherichia coli [3]): 4 µg/mL
MIC (Escherichia coli [4]): 4 µg/mL

CNCc1cccc(NCc2ccc(-c3cccc(C(=O)O)c3O)o2)c1
MIC (Escherichia coli [1]): 8 µg/mL
MIC (Escherichia coli [2]): 8 µg/mL
MIC (Escherichia coli [3]): 4 µg/mL
MIC (Escherichia coli [4]): 8 µg/mL

CNCc1cccc(NCc2ccc(-c3ccc(C(=O)O)c(O)c3)o2)c1
MIC (Escherichia coli [1]): 4 µg/mL
MIC (Escherichia coli [2]): 4 µg/mL
MIC (Escherichia coli [3]): 4 µg/mL
Drug uptake [7]: Not Active
MIC (Escherichia coli [4]): 4 µg/mL

CC(=O)NCc1cccc(NCc2cccc(-c3ccc(C(=O)O)c(O)c3)c2)c1
Ki [5]: > 100 µM

CNCc1ccc(-c2ccc(C(=O)O)c(O)c2)o1
Ki [8]: 500 µM

NCc1cccc(NCc2cc(C(=O)O)cc(-c3ccc(C(=O)O)c(O)c3)c2)c1
Ki [5]: 140 µM

COc1cc(-c2cc(O)cc(C(=O)O)c2)ccc1C(=O)O
Ki [6]: 0.6 µM

NCc1cccc(NCc2cccc(-c3ccc(C(=O)O)c(O)c3)n2)c1
MIC (Escherichia coli [1]): 4 µg/mL
MIC (Escherichia coli [2]): 4 µg/mL
MIC (Escherichia coli [3]): 2 µg/mL
Drug uptake [7]: Active
MIC (Escherichia coli [4]): 4 µg/mL

CNC(=O)CCc1ccc(CNCc2cccc(NCc3ccc(-c4ccc(C(=O)O)c(O)c4)o3)c2)cc1
MIC (Escherichia coli [1]): 8 µg/mL
MIC (Escherichia coli [2]): 8 µg/mL
MIC (Escherichia coli [3]): 8 µg/mL
MIC (Escherichia coli [4]): 8 µg/mL

NCc1cc(O)cc(NCc2cccc(-c3ccc(C(=O)O)c(O)c3)c2)c1
MIC (Escherichia coli [1]): 4 µg/mL
MIC (Escherichia coli [2]): 4 µg/mL
MIC (Escherichia coli [3]): 4 µg/mL
MIC (Escherichia coli [4]): 4 µg/mL

Cc1cc(CNc2cccc(CN)c2)cc(-c2ccc(C(=O)O)c(O)c2)c1
MIC (Escherichia coli [1]): 4 µg/mL
MIC (Escherichia coli [9]): 4 µg/mL
MIC (Escherichia coli [2]): 4 µg/mL
Ki [5]: 0.5 µM

NCc1cccc(NCc2cccc(-c3ccc(C(=O)O)c(O)c3)c2)c1
MIC (Escherichia coli [1]): 4 µg/mL
MIC (Escherichia coli [9]): 4 µg/mL
MIC (Escherichia coli [2]): 4 µg/mL
Drug uptake [7]: Active
MIC (Escherichia coli [4]): 4 µg/mL
Ki [5]: 0.6 µM
